Peptide text beside a SMILES is read from it.
System: Botrytis cinerea (B05.10)
Assay: Resazurin antifungal assay of 23 alpha-factor peptides (dimers, hybrids) towards Botrytis (Example 15, Table 6)
Format: cell-based
Design: key to active against Botrytis at 2.5 μM: Peptides that showed greater than 90% inhibition were considered active against Botrytis
Settings: for Inhibition at 2.5 μM / active against Botrytis at 2.5 μM: peptide 2.5 μM; for Inhibition at 2.5 μM / Inhibition at 5 μM / Inhibition at 10 μM / Inhibition at 20 μM / Inhibition at 50 μM: resazurin assay, % inhibition of fungal growth, Botrytis cinerea B05.10; for Inhibition at 5 μM: peptide 5 μM; for Inhibition at 10 μM: peptide 10 μM; for Inhibition at 20 μM: peptide 20 μM; for Inhibition at 50 μM: peptide 50 μM
Description: The antifungal activity of […] alpha-factor peptide variants towards Botrytis was tested. Experimental design:
Peptides corresponding to SEQ ID NO: 261-264 and 401-420 were chemically synthesized using the solid-phase synthesis method and resuspended in water to a stock solution of 1 mM. The stock solution was aliquoted in cryovials and stored at −80° C.
The Botrytis cinerea culture (B05.10) isolate was acquired from the Centraalbureau voor Schimmelcultures, the Netherlands. The Botrytis fungus was propagated on 0.5% V8 agar plates (200 ml V8 Juice, 3 g CaCO3, 15 g agar, 800-ml millipore water) at 20° C., in a 12 h photoperiod for 21 days.
Fungal conidia were harvested by scraping a Botrytis plate flooded with 1 ml water with 0.1% Tween 80 solution. Conidia were then collected in a 50 ml falcon tube by passing the solution through a 40 micron filter. The solution was then centrifuged at 6000 rpm and the pellet was resuspended in 1 ml of 20% glycerol. The conidia concentration of the resulting solution was counted using a hemocytometer. The stock was diluted to […] using 20% glycerol and frozen in 100 μl aliquots in −80° C. until further use.
Peptides were tested for activity against Botrytis, using the resazurin assay. For this, fungal stock conidia was first diluted to 5000 conidia/well. 50 μl of the spore suspension was added to each well of the sterile 96-well clear bottom testing plate and mixed with 50 μl of peptide solutions to a final concentration of 100, 50, 20, 10, 5 and 2.5 μM. The plate was incubated for 24 h at 20° C. After 24 h, 10 μl of resazurin dye was added to the microtiter plate and incubated again for […]. Fluorescence was measured at 570/620 nm after 4 h of incubation with resazurin.
Growth inhibition was calculated by subtracting the fluorescence values of conidia only wells from sample wells and depicted as % inhibition of fungal growth. Four technical replicates were used for all treatments.

Row | Compound | Inhibition at 2.5 μM | Inhibition at 5 μM | Inhibition at 10 μM | Inhibition at 20 μM | Inhibition at 50 μM | active against Botrytis at 2.5 μM
1 | CSCC[C@H](NC(=O)[C@@H]1CCCN1C(=O)[C@H](CCC(N)=O)NC(=O)CNC(=O)[C@H](C)NC(=O)[C@H](CCCNC(=N)N)NC(=O)[C@H](CC(C)C)NC(=O)[C@H](CCCNC(=N)N)NC(=O)CNC(=O)[C@H](Cc1c[nH]c2ccccc12)NC(=O)[C@H](Cc1c[nH]cn1)NC(=O)[C@H](CCCCN)NC(=O)CNC(=O)CNC(=O)CNC(=O)CNC(=O)[C@H](Cc1ccc(O)cc1)NC(=O)[C@H](CCSC)NC(=O)[C@@H]1CCCN1C(=O)[C@H](CCC(N)=O)NC(=O)CNC(=O)[C@H](C)NC(=O)[C@H](CCCNC(=N)N)NC(=O)[C@H](CC(C)C)NC(=O)[C@H](CCCNC(=N)N)NC(=O)CNC(=O)[C@H](Cc1c[nH]c2ccccc12)NC(=O)[C@H](Cc1c[nH]cn1)NC(=O)[C@@H](N)CCCCN)C(=O)N[C@@H](Cc1ccc(O)cc1)C(=O)O [compound 261] (H-KHWGRLRAGQPMYGGGGKHWGRLRAGQPMY-OH; N-terminus and C-terminus assumed) | <90% | 99.3% | 100% | 100% | 100% | –
2 | CSCC[C@H](NC(=O)[C@@H]1CCCN1C(=O)[C@H](CCC(N)=O)NC(=O)CNC(=O)[C@H](C)NC(=O)[C@H](CCCNC(=N)N)NC(=O)[C@H](CC(C)C)NC(=O)[C@H](CCCNC(=N)N)NC(=O)CNC(=O)[C@H](Cc1c[nH]c2ccccc12)NC(=O)[C@H](Cc1c[nH]cn1)NC(=O)[C@@H](N)CCCCN)C(=O)N[C@@H](Cc1ccc(O)cc1)C(=O)NCC(=O)NCC(=O)NCC(=O)NCC(=O)N[C@@H](CCCNC(=N)N)C(=O)N[C@@H](CCCNC(=N)N)C(=O)N[C@@H](CCCNC(=N)N)C(=O)N[C@@H](CCCNC(=N)N)C(=O)N[C@@H](CCCNC(=N)N)C(=O)N[C@@H](CCCNC(=N)N)C(=O)N[C@@H](CCCNC(=N)N)C(=O)N[C@@H](CCCNC(=N)N)C(=O)O [compound 262] (H-KHWGRLRAGQPMYGGGGRRRRRRRR-OH; N-terminus and C-terminus assumed) | 99.8% | 100% | 100% | 100% | 100% | active
3 | CSCC[C@H](NC(=O)[C@@H]1CCCN1C(=O)[C@H](CCC(N)=O)NC(=O)CNC(=O)[C@H](C)NC(=O)[C@H](CCCNC(=N)N)NC(=O)[C@H](CC(C)C)NC(=O)[C@H](CCCNC(=N)N)NC(=O)CNC(=O)[C@H](Cc1c[nH]c2ccccc12)NC(=O)[C@H](Cc1c[nH]cn1)NC(=O)[C@@H](N)CCCCN)C(=O)N[C@@H](Cc1ccc(O)cc1)C(=O)NCC(=O)NCC(=O)NCC(=O)NCC(=O)N[C@@H](CCCCN)C(=O)N[C@@H](CCCCN)C(=O)N[C@@H](CCCCN)C(=O)N[C@@H](CCCCN)C(=O)N[C@@H](CCCCN)C(=O)N[C@@H](CCCCN)C(=O)N[C@@H](CCCCN)C(=O)N[C@@H](CCCCN)C(=O)O [compound 263] (H-KHWGRLRAGQPMYGGGGKKKKKKKK-OH; N-terminus and C-terminus assumed) | 99.7% | 100% | 100% | 100% | 100% | active

Source: patent US20250382332A1, “NOVEL ALPHA-FACTOR BASED PEPTIDES WITH ANTIFUNGAL ACTIVITY” (INVAIO SCIENCES, INC., priority 2024, published 2025)
